Measured values: US9556417B2, “Reprogramming of cells to a new fate” (The Scripps Research Institute, priority 2010, dated 2017)

Tests used:
[1] = tested on: R1 ES cells; experiment: Serum-free monolayer cardiac differentiation of ES cells, beating colonies; assay type: cell-based, mouse; conditions: for cardiac differentiation / percentage of beating colonies: early treatment window; for number of beating colonies: treatment days 5 through 7
Method: Having identified the first serum-free monolayer condition for cardiac differentiation of ES cells, we sought to test its efficacy as a platform to discover regulators of cardiomyogenesis. A collection of approximately 200 small molecules and growth factors reported to be influential in developmental processes were assembled. R1 ES cells were grown and plated for differentiation on Matrigel in 24-well plates using the media and growth factors described above. The screening collection was then added and removed from each well at specific time points in order to account for different developmental time windows. The collection was screened at days 0-2, 2-5, and 5-7.
(§1) Cells are plated at a density of 200,000 cells/well of a 6-well plate in 2.5 ml of ESGM. 6-well plates are coated overnight at 4° C. with 1 ml of Matrigel (BD Bioscience) diluted 50× from stock concentration. 24 hours after plating, or after sufficient colony size was achieved, cells are switched into chemically defined medium (CDM) and treated with 4 uM BIO (Calbiochem) and 20 ng/ml BMP-4 (R&D). CDM contains RPMI 1640, 0.5×N2, 1×B27 (without Vitamin A), 0.5× Glutamax, 0.55 mM beta-mercaptoethanol, 1× non-essential amino acids, 1× nucleosides. At Day 2, medium is changed, and again CDM containing 4 uM BIO with 20 ng/ml BMP-4 is added to the cells. At Day 5, cells are washed once with PBS and medium is changed to CDM containing 100 ng/ml Dkk-1 (R&D). At Day 7, medium is changed, and again CDM containing 100 ng/ml Dkk-1 is added to the cells. At Day 10, cells are trypsinized (0.05% trypsin) (Approximately 5 minutes at 37° C., or until cells begin to detach) and replated onto gelatin coated 6-well plates in CDM with no additional growth factors. By this time, the cells will have formed tight colonies that will be difficult to disrupt (Supplementary FIG. 2b). […] The trypsin is used primarily to detach the cells rather than to dissociate them to a single cell suspension. It is preferable for the colonies to remain intact. The trypsin is briefly quenched with MEF media, cells are centrifuged, and resuspended in CDM for plating. Medium is refreshed as needed to remove dead cells and debris (every 1 to 2 days).

[2] = tested on: R1 ES cells; experiment: QRT-PCR of markers in differentiating ES cells; assay type: cell-based, mouse; conditions: for expression of cardiac specific markers: treatment days 5-7, assessed at day 8; for expression of Brachyury T, Flk-1, GATA-4 and MESP1: treated day 0-2, harvested day 4.5
Method: To further analyze the mechanism of action of the cardiogenic effect seen with these molecules, QRT-PCR was carried out on cells treated from day 0-2 and harvested at day 4.5.
QRT-PCR was carried out to observe the induction of cardiomyogenesis at the transcript level. At day 5, when A83-01 treatment begins, the predominant state is that of a developed primitive streak type population that is yet to display robust expression of markers of cardiac precursors such as Nkx2.5, Isl-1, and c-kit.
Total RNA from each sample was prepared from 5×10^4 cells using RNeasy mini kit (Qiagen). Reverse transcription was carried out by using Reverse Transcription System (Promega) and PCR performed using PCR Super Mix (Invitrogen).

[3] = tested on: R1 mESCs; experiment: Serum-free monolayer cardiac differentiation of ES cells, αMHC immunostaining at day 10; assay type: cell-based, mouse; conditions: for effect on cardiac specification (αMHC staining at day 10): factor given in single treatment windows; for cells staining for αMHC: treatment in the first window, day 10
Source text: While cellular differentiation is a fluid process, its study can be simplified by defining stages of differentiation. In order to identify conditions conducive to cardiomyocyte differentiation, we employed a matrix strategy in which cells were differentiated for 10 days encompassing 4 treatment windows (followed by a period of maturation in the final procedure). The stages identified for the current study were mesendoderm, mesoderm, cardiac precursor, early cardiomyocyte, and mature cardiomyocyte. Shown in FIG. 24 is a schematic representing the transition from ES cells to cardiomyocytes, including markers for each cell type defined and the treatments used to stimulate each transition.
We began by identifying a minimal serum-free condition in which approximately 1% of cells would express αMHC (alpha-myosin heavy chain) after 10 days of culture. Combinations of medium components and plate coatings were tested in parallel, with the most permissive and consistent condition being a modified chemically defined N2/B27 medium on Matrigel coated plates (see Methods). Prior to differentiation, ES cells were maintained in a pluripotent state on MEFs and with LIF. At day −1, the cells were trypsinized and replated on Matrigel coated plates in LIF supplemented medium, allowing for better cell survival and more robust initial colony formation. In one day, a sufficient colony size is achieved allowing survival in serum-free medium (FIG. 25).
From a literature search, we identified growth factors, cytokines and small molecules reported to influence cardiac differentiation, such as activators and inhibitors of BMP, TGF-β/Nodal, Hedgehog, Wnt, and Notch pathways and tested each for their ability to induce cardiomyogenesis at each time window. For example, to test Dkk-1 in the second window, cells were in basal medium for days 0-2, treated with Dkk-1 for days 2-5, then cultured in basal medium until day 10 before immunofluorescence scoring. Positive regulators of cardiac specification at each stage were therefore identified by their ability to induce alpha-myosin heavy chain (αMHC) expression at day 10, as assessed by immunostaining.
as §1
Cells were fixed in 4% paraformaldehyde (Sigma) for 15 minutes, and stained in 0.3% Triton (Sigma) containing 5% donkey serum (Jackson ImunoResearch). Antibodies were used at dilutions of MF20 [Developmental Studies Hybridoma Bank (DSHB)] […]

[4] = tested on: mouse embryonic fibroblasts (MEFs); experiment: Direct cardiac reprogramming of fibroblasts, contracting patch/colony counts; assay type: cell-based
Source text: Having successfully initiated the early cardiogenic program in MEFs, we next sought to induce robust activation of mid-stage cardiac gene expression and to ultimately generate spontaneously contracting patches of cardiac cells, a hallmark of terminal differentiation that is easily observed and quantified. To this end, we treated three-factor transduced MEFs with chemically defined media (CDM) as well as cytokines and small molecules that might enhance cardiogenesis by regulating TGFβ, bone morphogenetic protein (BMP), Hedgehog, Wnt, or Notch pathway activity. Treatments were done individually and in combination, and at different times during the reprogramming process. Despite the general unsuitability of the resulting protocol for iPSC generation, we also explored whether small-molecule inhibition of JAK-STAT (Janus kinase-signal transducer and activator of transcription), PI3K (phosphatidylinositol 3-kinase), or Wnt signalling during the early stages of the protocol might boost the effectiveness of cardiomyogenesis by preventing even a small number of iPSC intermediates from forming. Finally, we experimented with a more gradual transition between different media by lowering FBS concentration step-wise in increments of 1-4% over 3-6 days (immediately prior to switching to CDM). […] During this initial nine-day period, the small-molecule JAK inhibitor JD is continuously kept in the media at a concentration of 0.5 μM. From day nine onwards, the cells are cultured in CDM, with the cardioinductive growth factor BMP4 (Snyder, A. et al., J Cell Biochem 93, 224-32 (2004)) being added at 20 ng/ml for the first five days (FIG. 1b).
All MEFs (129S2/SvPasCrlf) were derived according to WiCell protocols (https://www.wicell.org/index.php?option=com_docman&task=doc_download&gid=687). TTFs were a kind gift of Dr. Hans Schöler. Secondary MEFs were derived as previously described (Wernig, M. et al., Nat Biotechnol 26, 916-24 (2008)). All results were initially obtained and confirmed with the Nebulette-LacZ MEFs; to ensure reproducibility and minimize inter-experimental variation, reported results almost exclusively derive from experiments utilizing secondary dox-inducible MEFs using the optimum induction period. MEFs were initially passaged on gelatin-coated (0.1% for 2 hours at 37° C.) tissue culture dishes in DMEM supplemented with 10% FBS, 2 mM Glutamax and 0.1 mM NEAA (all components from Invitrogen, Carlsbad, Calif.). Prior to viral transduction, cells were seeded onto Matrigel (BD Biosciences, Franklin Lakes, N.J.) or Geltrex (Invitrogen)-coated plates (1:40, overnight at 4° C.) at 3.5×10^4 cells per well of a six well plate (7×10^4 cells for TTFs) in the same media. […]

Molecule: C[C@H]1O[C@@H](n2cnc3c(N)ncnc32)C[C@@H]1OP(=O)(OCCSC(=O)C(C)(C)C)OCCSC(=O)C(C)(C)C [2′,5′-dd-3′-AMP-bis(t-Bu-SATE)]
- cardiac differentiation / percentage of beating colonies [1]: decrease in the percentage of beating clusters

Molecule: Cc1cccc(-c2nn(C(=S)Nc3ccccc3)cc2-c2ccnc3ccccc23)n1 [A83-01, 3-(6-Methyl-2-pyridinyl)-N-phenyl-4-(4-quinolinyl)-1H-pyrazole-1-carbothioamide]
- expression of cardiac specific markers [2]: induced higher levels of expression
- number of beating colonies [1]: induced a higher number of beating colonies

Molecule: O=C1Nc2cc(Br)ccc2/C1=C1/Nc2ccccc2/C1=N\O [BIO, 6-bromoindirubin-3′-oxime]
- effect on cardiac specification (αMHC staining at day 10) [3]: increase the percentage of αMHC staining
- optimal dosage ([3]; first window (day 0-2)): 4 µM
- cells staining for αMHC [3]: approximately 20%

Molecule: COC(=O)C1=C(C)NC(C)=C([N+](=O)[O-])C1c1ccccc1C(F)(F)F (centres unmarked) [BayK 8644]
- expression of Brachyury T, Flk-1, GATA-4 and MESP1 [2]: increased
- cardiac differentiation / percentage of beating colonies [1]: strong positive stimulator of cardiac differentiation

Molecule: CCCC(=O)Nc1ncnc2c1ncn2[C@@H]1O[C@@H]2COP(=O)(O)O[C@H]2[C@H]1OC(=O)CCC [dibutyryl cAMP]
- expression of Brachyury T, Flk-1, GATA-4 and MESP1 [2]: increased
- cardiac differentiation / percentage of beating colonies [1]: increased the percentage of beating colonies

B1: BMP4: cardioinductive growth factor, member of the TGF-β superfamily (protein, UniProt P12644 293-408, looked up)
Bone morphogenetic protein 4: SPKHHSQRARKKNKNCRRHSLYVDFSDVGWNDWIVAPPGYQAFYCHGDCPFPLADHLNSTNHAIVQTLVNSVNSSIPKACCVPTELSAISMLYLDEYDKVVLKNYQEMVVEGCGCR
- optimal concentration ([3]; first and/or second treatment windows): 20 ng/mL
- cells staining for αMHC [3]: approximately 20%
- contracting patches per 100,000 MEFs plated (mean) ([4]; n=6, JI1 0.5 μM first nine days, BMP4 20 ng/ml five days): 149±13 patches per 100,000 MEFs plated
- increase in formation of contracting patches ([4]; three-factor transduced MEFs, BMP4 20 ng/ml for first five days in CDM): ~150 fold

B2: Activin A: a TGFβ/Activin/Nodal family member growth factor (protein, UniProt P08476 311-426, looked up)
Inhibin beta A chain: GLECDGKVNICCKKQFFVSFKDIGWNDWIIAPSGYHANYCEGECPSHIAGTSGSSLSFHSTVINHYRMRGHSPFANLKSCCVPTKLRPMSMLYYDDGQNIIKKDIQNMIVEECGCS
modifications: Inhibin beta A chain
- expression of cardiac specific markers [2]: opposite effect
- effect on cardiac specification (αMHC staining at day 10) [3]: negative effects
- number of beating colonies [1]: lower number of beating colonies

B3: Dkk-1: Wnt inhibitor Dkk-1 (Dickkopf protein 1) (protein, UniProt O94907 32-266, looked up)
Dickkopf-related protein 1: TLNSVLNSNAIKNLPPPLGGAAGHPGSAVSAAPGILYPGGNKYQTIDNYQPYPCAEDEECGTDEYCASPTRGGDAGVQICLACRKRRKRCMRHAMCCPGNYCKNGICVSSDQNHFRGEIEETITESFGNDHSTLDGYSRRTTLSSKMYHTKGQEGSVCLRSSDCASGLCCARHFWSKICKPVLKEGQVCTKHRRKGSHGLEIFQRCYCGEGLSCRIQKDHHQASNSSRLHTCQRH
- increase in efficiency of cardiac differentiation ([3]; after BMP-4 and BIO for 5 days, treated in third or fourth window): 20%
- colonies developing a beating phenotype ([1]; BMP-4 + BIO then Dkk-1, replated on gelatin, basal medium, after 6 days of culture): ~50%

B4: Wnt5a: Wnt-5A class, non-canonical Wnt signaling growth factor (protein, UniProt P41221 62-380, looked up)
Protein Wnt-5a: IIGAQPLCSQLAGLSQGQKKLCHLYQDHMQYIGEGAKTGIKECQYQFRHRRWNCSTVDNTSVFGRVMQIGSRETAFTYAVSAAGVVNAMSRACREGELSTCGCSRAARPKDLPRDWLWGGCGDNIDYGYRFAKEFVDARERERIHAKGSYESARILMNLHNNEAGRRTVYNLADVACKCHGVSGSCSLKTCWLQLADFRKVGDALKEKYDSAAAMRLNSRGKLVQVNSRFNSPTTQDLVYIDPSPDYCVRNESTGSLGTQGRLCNKTSEGMDGCELMCCGRGYDQFKTVQTERCHCKFHWCCYVKCKKCTEIVDQFVCK
- decrease in overall beating efficiency ([1]; same stage as BayK 8644): 20%
